From publication doi:10.1101/2023.02.01.526632v1 (biorxiv, 2023)

Molecular target: T1, BAP1 (Homo sapiens, UniProt Q92560)
T1 sequence (Q92560 1-729): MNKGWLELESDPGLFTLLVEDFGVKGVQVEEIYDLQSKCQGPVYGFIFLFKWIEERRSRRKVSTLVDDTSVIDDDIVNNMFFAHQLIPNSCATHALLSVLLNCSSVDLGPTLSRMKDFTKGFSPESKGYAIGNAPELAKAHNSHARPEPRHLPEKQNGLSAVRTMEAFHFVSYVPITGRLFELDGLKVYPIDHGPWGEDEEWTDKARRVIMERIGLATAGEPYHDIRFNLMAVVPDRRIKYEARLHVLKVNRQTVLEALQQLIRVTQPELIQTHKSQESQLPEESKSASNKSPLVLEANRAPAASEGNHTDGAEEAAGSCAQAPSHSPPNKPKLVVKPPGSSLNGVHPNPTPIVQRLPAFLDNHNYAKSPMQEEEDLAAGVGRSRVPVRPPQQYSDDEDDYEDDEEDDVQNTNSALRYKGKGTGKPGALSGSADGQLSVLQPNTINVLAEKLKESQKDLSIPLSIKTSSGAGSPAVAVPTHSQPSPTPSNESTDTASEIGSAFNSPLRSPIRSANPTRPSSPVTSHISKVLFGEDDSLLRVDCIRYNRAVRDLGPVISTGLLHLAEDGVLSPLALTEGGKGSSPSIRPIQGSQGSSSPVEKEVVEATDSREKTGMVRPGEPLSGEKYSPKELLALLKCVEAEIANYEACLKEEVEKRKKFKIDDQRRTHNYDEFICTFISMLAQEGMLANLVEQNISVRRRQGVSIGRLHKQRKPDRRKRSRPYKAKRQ
Assay: competition of Biotin-Ahx-Ub-VS labelling, DIA LC-MS/MS
Assay type: biochemical
Conditions: covalent; lysate, 3 h preincubation, 0.5 μM ubiquitin probe

IC50: ~10 µM
SMILES: O=C(CCl)N1CCCC1c1ccc2c(c1)OCCO2 (stereo not shown) [compound 3, fragment 3]
